Measurements published in patent publication US20250197373A1, “SMALL MOLECULE COMPOUND OR SALT THEREOF OR SOLVATE OF THEM, GUANINE NUCLEOTIDE-BINDING PROTEIN G(Q) SUBUNIT ALPHA (GNAQ) INHIBITOR CONTAINING THE SAME AND METHOD FOR TREATING AND/OR PREVENTING CANCER” (INDUSTRIAL TECHNOLOGY RESEARCH INSTITUTE, priority 2023, published 2025).

Biological target: T1, GNAQ (WT) (Homo sapiens, UniProt P50148)
T1 construct: BPS Bioscience (parental reporter cell line) 60406
T1 sequence (P50148 1-359): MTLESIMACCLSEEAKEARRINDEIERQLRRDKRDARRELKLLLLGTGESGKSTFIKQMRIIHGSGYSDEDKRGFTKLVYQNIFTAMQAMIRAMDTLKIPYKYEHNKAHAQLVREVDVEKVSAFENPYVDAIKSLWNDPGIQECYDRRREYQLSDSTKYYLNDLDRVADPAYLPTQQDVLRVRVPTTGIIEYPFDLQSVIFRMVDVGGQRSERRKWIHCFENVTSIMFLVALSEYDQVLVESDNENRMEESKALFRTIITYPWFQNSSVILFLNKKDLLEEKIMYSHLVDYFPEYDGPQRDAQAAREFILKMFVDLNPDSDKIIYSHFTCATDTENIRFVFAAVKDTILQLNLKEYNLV
Assay: SRE luciferase reporter gene-HEK293 cell line, GNAQ (WT)
Type: cell-based
Details: Cell type WT, 20% FBS induction, read-out: GNAQ inhibitory rate; for inhibition at 0.9 µM: analytical concentration 900 nM; for inhibition at 2.7 µM: analytical concentration 2,700 nM; for inhibition at 8.1 µM: analytical concentration 8,100 nM
Procedure: 7.5×10^4 SRE-293-GNAQ (WT) or SRE-293-GNAQ (T96S) cell lines were seeded in a 24-well plate and cultured in a carbon dioxide incubator at 37° C. SRE-293-GNAQ (WT) or SRE-293-GNAQ (T96S) cell lines was derived from additionally transfecting SRE Reporter—HEK293 Recombinant Cell Line (ERK Pathway) (Catalog number: 60406; BPS Bioscience) cells with an expression vector separately expressing GNAQ (WT) or GNAQ (T96S), and screening a stable expression cell line by the antibiotic, geneticin (type number 10131035; Thermo Fisher Scientific). GNAQ (WT) or GNAQ (T96) expression vector was derived from gene synthesis and point mutation modification of GenScript company's customized services.
After 48 hours of culture, the culture medium in the 24-well plate was replaced with minimal essential medium (MEM) containing only 0.1% fetal bovine serum (FBS) and the cells were cultured overnight.
After overnight culture, the compound to be tested was added to the cells and reacted for 2 hours, and the medium at this point was still MEM medium containing only 0.1% fetal bovine serum. After reacting with the compound to be tested for 2 hours, fetal bovine serum at a final concentration of 20% was added to the cells and reacted for at least 4 hours. After the reaction, the supernatant was removed. Next, 100 μL of cell lysis reagent CelLytic M Cell Lysis Reagent (Catalog number: C2978; Sigma) was added to the cells and aspirated repeatedly several times to form a cell lysate solution with the cells. The cell lysate solution was collected in a microcentrifuge tube and centrifuged at a high speed of 14,000 rpm for 5 minutes. After that, 30 μL of supernatant was taken out and placed in a 96-well white plate for luminescence analysis, and 30 μL of firefly luminescence analysis reagent (Catalog No. E1501; Promega) diluted 3-fold was added and mixed well, and then luminescence detection was performed with a plate enzyme immunoassay analyzer (ELISA reader) to evaluate the effect of the compound to be tested on MAPK signaling induced by GNAQ through the expression of the firefly luciferase reporter gene.
In order to confirm the effect of the compounds on MAPK signaling induced by GNAQ, the screened SRE-HEK293 cells capable of expressing exogenous GNAQ (WT) and GNAQ (T96S) genes were subjected to overnight serum starvation, and 2 hours before induction with 20% fetal bovine serum, the compound to be tested (one of Compound 1 to Compound 15 prepared above) was added to the cells, and after serum induction, the expression of the firefly luciferase reporter gene was measured. Through the above steps, the inhibition of the compound to be tested on GNAQ expression could be evaluated through the expression of the reporter gene in cells.

Structure (SMILES)	inhibition at 0.9 µM [%]	inhibition at 2.7 µM [%]	inhibition at 8.1 µM [%]
O=C(Nc1cccc(-c2ccnc(-c3ccc(F)c(F)c3)n2)c1)Nc1cc(Cl)nc(Cl)c1 [Compound 4]	< 10	10 to 39	40 to 70
O=C(Nc1ccc(-c2ccnc(-c3cccc(C(F)(F)F)c3)n2)cc1)Nc1cc(Cl)nc(Cl)c1 [Compound 7]	< 10	< 10	10 to 39
O=C(Nc1cccc(-c2ccnc(-c3cccc(C(F)(F)F)c3)n2)c1)c1cc(Cl)nc(Cl)c1 [Compound 5]	< 10	10 to 39	< 10
N#Cc1cccc(-c2nccc(-c3cccc(NC(=O)Nc4cc(Cl)nc(Cl)c4)c3)n2)c1 [Compound 3]	10 to 39	10 to 39	> 70
O=C(Nc1ccc(-c2ccnc(-c3cccc(C(F)(F)F)c3)n2)cc1)Nc1ccc(Cl)c(C(F)(F)F)c1 [Compound 8]	< 10	< 10	< 10
O=C(Nc1ccc(-c2ccnc(-c3ccncc3)n2)cc1)Nc1ccc(Cl)c(C(F)(F)F)c1 [Compound 6]	< 10	10 to 39	10 to 39
O=C(Nc1cccc(-c2ccnc(-c3cccc(C(F)(F)F)c3)n2)c1)Nc1cc(Cl)nc(Cl)c1 [Compound 2]	10 to 39	10 to 39	> 70
O=C(Nc1cccc(-c2ccnc(-c3ccnc(Cl)c3)n2)c1)Nc1cc(Cl)nc(Cl)c1 [Compound 1]	< 10	10 to 39	> 70

Now from value to compound:

inhibition at 0.9 µM [%]	inhibition at 2.7 µM [%]	inhibition at 8.1 µM [%]	Structure (SMILES)
10 to 39	40 to 70	> 70	FC(F)(F)c1cccc(-c2cccc(-c3ccc(NC(=S)Nc4cc(Cl)nc(Cl)c4)cc3)n2)c1 [Compound 10]
10 to 39	40 to 70	> 70	O=C(Nc1cccc(-c2cccc(-c3ccncc3)n2)c1)Nc1cc(Cl)nc(Cl)c1 [Compound 13]
< 10	10 to 39	> 70	O=C(Nc1ccc(-c2nc(-c3ccccc3)ncc2Cl)cc1)Nc1cc(Cl)nc(Cl)c1 [Compound 15]
10 to 39	10 to 39	> 70	O=C(Nc1ccc(-c2cccc(-c3cccc(C(F)(F)F)c3)n2)cc1)Nc1cc(Cl)nc(Cl)c1 [Compound 9]
10 to 39	40 to 70	> 70	N#Cc1cccc(-c2cccc(-c3ccc(NC(=S)Nc4cc(Cl)nc(Cl)c4)cc3)n2)c1 [Compound 11]
< 10	10 to 39	40 to 70	O=C(Nc1cccc(-c2cc(-c3cccc(C(F)(F)F)c3)ncn2)c1)Nc1cc(Cl)nc(Cl)c1 [Compound 14]
10 to 39	10 to 39	40 to 70	O=C(Nc1ccc(-c2cccc(-c3ccncc3)n2)cc1)Nc1ccc(Cl)c(C(F)(F)F)c1 [Compound 12]
